From patent US20050085546A1, “Method of inducing differentiation of dendritic cells” (Council of Scientific & Industrial Research, priority 2003, published 2005)

Assays:
[1] = tested on: osteoclast precursors (murine bone marrow cells, M-CSF + RANKL); test: In vitro osteoclastogenesis assay (TRAP staining); format: cell-based, Balb/c mice; settings: M-CSF + RANKL + compound 5.0 μg/ml, 6 days
BM leukocyte precursors [2] = test: Viability of stimulated BM leukocyte precursor cultures; format: cell-based, BALB/c mouse; set-up: Viability, % of Viable cells: reference not given here
Procedure: (§1) The fine suspension obtained above was transferred into a 50 ml sterile centrifuge tube and centrifuged for 10 minutes at 1200 rpm. […] The pellets were washed using HBSS wash buffer and then centrifuged again for 10 minutes at 1200 rpm. This process was repeated for one more time. […] This suspension was then finally passed through a MACS (Magnetic Activated Cell Sorting) column to get essentially and predominately leukocyte precursors.

BM leukocyte precursors [3] = test: Differentiation of dendritic cells from bone marrow leukocyte precursors; cell surface marker expression by flow cytometry; format: cell-based, BALB/c mouse; settings: for differentiation of dendritic cells (in words): from BM precursors
Procedure: Cells were stained for the surface levels of indicated markers. Plates A-D represent surface levels of CD80, CD54, CD11c and H-2D (MHC class 1), respectively. […] The Green line represents staining of stimulated cells while the black line depicts staining of unstimulated cells.
as §1
In order to evaluate the upregulation of various cell surface markers associated with Dendritic cells, flow cytometry on the cells stimulated with GM-CSF or the compound was carried out using fluorescent labeled antibodies to various molecules (CD11c, I-A^d, CD80, CD86, H2-D^d, CD54, CD40).
The hind limbs of the mouse were removed carefully and placed in a Petri dish with HBSS (Hanks Balanced Saline Solution) wash buffer. The tibias and femurs were cleared of all surrounding and attached tissues. This was followed by chipping the ends of bones. The bone marrow was flushed out by injecting HBSS solution into the bone with the help of a hypodermal syringe (No. 26 gauge). The bone marrow was finally made into a fine suspension by syringing in and out of the fluid several times using an 18 gauge syringe needle.

[4] = tested on: osteoclast precursors (murine bone marrow cells, M-CSF + RANKL); test: In vitro osteoclastogenesis assay (TRAP staining); format: cell-based, Balb/c mice; settings: for % inhibition of osteoclast formation / Number of TRAP-positive multinuclear cells/well of 96 well plate (Mean ± SEM): 6 days
Text: Culture of murine bone marrow cells in the presence of M-CSF and RANKL induces the formation of osteoclasts, which were detected as TRAP-positive cells. […] Values given are the mean±SD of five separate experiments.
For in vitro osteoclastogenesis bone marrow cells were isolated from 5- to 8-wk-old Balb/c mice. Mice were sacrificed by cervical dislocation and femora and tibiae were aseptically removed and dissected free of adherent soft tissues. The bone ends were cut, and the marrow cavity was flushed out with medium MEM from one end of the bone using a sterile 21-gauge needle. The bone marrow suspension was carefully agitated with a plastic Pasteur pipette to obtain a single-cell suspension. The cells were washed twice and resuspended (10^6 cells/ml) in aMEM containing 10% FBS. […] After 24 h, nonadherent cells were harvested and layered on a Ficoll-Hypaque gradient. Cells at the gradient interface were collected, washed and resuspended (5×10^5/ml) in AMEM containing 10% FBS. In this study, we called these stromal cell-free, M-CSF-dependent, nonadherent cells as osteoclast precursors. These osteoclast precursors were added to 96-well plates (100 μl/well) containing plastic coverslips. Each well received further 100 μl of medium containing M-CSF (30 ng/ml), RANKL (30 ng/ml) without or with various concentrations of purified compound. Cultures were fed every 2-3 days and after incubation for 6 days osteoclast formation was evaluated by tartrate-resistant acid phosphatase (TRAP) staining. The number of TRAP-positive multinucleated cells (MNCs) containing 3 or more nuclei was scored.
TRAP is preferentially expressed at high levels in osteoclast and is considered, especially in the mouse, to be an osteoclast marker. Cytochemical staining for TRAP is widely used for identifying the osteoclasts in vivo and in vitro. It is claimed to be specific for osteoclasts in bone. After incubation, cells on cover slips were washed in PBS, fixed in 10% formalin for 10 min and stained for acid phosphatase in the presence of 0.05 M sodium tartrate. The substrate used was napthol AS-BI phosphate. Only those cells that were strongly TRAP-positive (dark red) counted by light microscopy.

[5] = M-CSF + RANKL + compound 0.5 μg/ml
[6] = M-CSF + RANKL + compound 1.5 μg/ml
[7] = M-CSF + RANKL + compound 3.0 μg/ml
[8] = M-CSF + RANKL + compound 5.0 μg/ml
[9] = Table B, concentration not given
[10] = Table A, 15 ng/ml GM-CSF or 50 micro gram per ml synthetic compound, 48 h

## O=C([O-])CC[C@H](NS(=O)(=O)[O-])C(=O)[O-].O=C([O-])CC[C@H](NS(=O)(=O)[O-])C(=O)[O-].[Ca+2].[Ca+2].[Ca+2] [compound 1, L-glutamyl-N-sulphonic acid, Ca salt]
[1]
  Number of TRAP-positive multinuclear cells/well of 96 well plate (Mean ± SEM): 2.83 ± 1.05 cells/well
BM leukocyte precursors [2]; 200 mM, 48 h
  viability of the cultures at the end of the incubation period: more than 99%
BM leukocyte precursors [2]; 50 micro gram per ml, 48 h
  viability of the cultures at the end of the incubation period: > 99%
BM leukocyte precursors [3]; BM leukocyte precursors incubated with different concentrations
  concentration of maximum up regulation of cell surface densities of CD11c, CD80, CD54: 200 mM
BM leukocyte precursors [3]; listed as Compound I
  differentiation of dendritic cells (in words): Induces Differentiation of Dendritic Cells
BM leukocyte precursors [3]; listed as the compound
  differentiation of dendritic cells (in words): induces the differentiation of DCs from BM precursors
[4]; [5]
  % inhibition of osteoclast formation: 21.01%
  Number of TRAP-positive multinuclear cells/well of 96 well plate (Mean ± SEM): 109.67 ± 9.79 cells/well
[4]; [6]
  % inhibition of osteoclast formation: 62.19%
  Number of TRAP-positive multinuclear cells/well of 96 well plate (Mean ± SEM): 52.17 ± 6.42 cells/well
[4]; [7]
  % inhibition of osteoclast formation: 89.36%
  Number of TRAP-positive multinuclear cells/well of 96 well plate (Mean ± SEM): 14.67 ± 1.98 cells/well
[4]; [8]
  % inhibition of osteoclast formation: 97.94%
[4]; increasing dose
  inhibition in the number of osteoclast cells generated (in words): dose dependent inhibition

## O=C(O)CC[C@H](NS(=O)(=O)O)C(=O)O [compound 3, L-glutamyl-N-sulphonic acid]
[1]
  Number of TRAP-positive multinuclear cells/well of 96 well plate (Mean ± SEM): 110.00 ± 6.72 cells/well
BM leukocyte precursors [2]; [9]
  Viability, % of Viable cells: 115%
[4]; [5]
  Number of TRAP-positive multinuclear cells/well of 96 well plate (Mean ± SEM): 154.67 ± 8.43 cells/well
[4]; [6]
  Number of TRAP-positive multinuclear cells/well of 96 well plate (Mean ± SEM): 150.33 ± 8.82 cells/well
[4]; [7]
  % inhibition of osteoclast formation: 23.23%
  Number of TRAP-positive multinuclear cells/well of 96 well plate (Mean ± SEM): 112.67 ± 8.63 cells/well
[4]; [8]
  % inhibition of osteoclast formation: 25.08%

## GM-CSF: the growth factor that is conventionally used to generate DCs in vitro
BM leukocyte precursors [2]; [10]
  Viability, % of Viable cells: 180%
BM leukocyte precursors [2]; [9]
  Viability, % of Viable cells: 180%
BM leukocyte precursors [3]; [10]
  Fold increase in Relative MFI over unstimulated control, CD11c: 5.0 fold
  Fold increase in Relative MFI over unstimulated control, CD54: 4.0 fold
  Fold increase in Relative MFI over unstimulated control, CD80: 3.3 fold
  Fold increase in Relative MFI over unstimulated control, H-2D^d: 2.0 fold
BM leukocyte precursors [3]; [9]
  Fold increase in Relative MFI over unstimulated control, CD11c: 5.0 fold
  Fold increase in Relative MFI over unstimulated control, CD54: 4.0 fold
  Fold increase in Relative MFI over unstimulated control, CD80: 3.3 fold
  Fold increase in Relative MFI over unstimulated control, H-2D^d: 2.0 fold
